The target of one test is FABPs. Details: method as in PMID 11461829. The conditions noted are these: moderate to high binding affinities of FABPs, ref [2]; cited from earlier work.
A further test has as its target T1, FABP4 (Homo sapiens, UniProt P15090).
T1 construct: purchased Sigma Aldrich
Nature of the test: MST binding of fluorescent fatty acids to FABP4. As to the method:
(§1) FABPs are known to bind more hydrophobic ligands with higher affinity ([1]).
(§2) Microscale thermophoresis (MST) experiments were carried out on a Monolith NT.115 MST device (NanoTemper Technologies GmbH). […] […] In order to minimize the effect of protein aggregation, 0.05 Vol-% of Tween 20 (NanoTemper Technologies GmbH) were added to the HEPES/NaCl buffer solution. Samples were prepared in low-binding Eppendorf tubes. The influence of photobleaching on the quantum yield was reduced by using freshly diluted fluorophore solutions and storing the samples under the exclusion of light during the incubation time of 10 min. The samples were loaded into premium capillaries (NanoTemper Technologies GmbH). The coated capillary surface is designed to avoid the adhesion of molecules. Initially, repeated pre-tests without protein but with different fluorophore concentrations were carried out. This was done to find the optimum concentration and excitation power and to check the fluorescence activity of the fluorophores. The fluorescence intensity had to be in the range of 300 to 600 counts, with preferably smooth MST traces. For binding affinity measurements, the concentration of the fluorescent fatty acid was held constant at 80 nM, while the non-labeled FABPs were used at variable concentrations in a dilution series. The power of the IR laser was held constant at a medium set for all measurements, generating a constant temperature gradient. The measurements were performed as duplicates, using the software MO. Control (version 1.6) and afterward analyzed with the software MO. Affinity Analysis (version 2.3) (NanoTemper Technologies GmbH). The mean fluorescence intensities at the start time were divided by the values at the end time of the MST traces and normalized, obtaining the MST signal Fnorm. For all analyses, the end time was manually set to 1.5 s after the start of the heating process. Fnorm was normalized for the amplitude and baseline corrected to obtain the bound fraction.

For another test, the target named is T2, FABP5 (Homo sapiens, UniProt Q01469).
T2 construct: purchased Sigma Aldrich
In words: MST binding of fluorescent fatty acids to FABP5. As to the method:
as §1, §2

For another test, the target named is T3, FABP3 (Homo sapiens, UniProt P05413).
T3 construct: purchased Sigma Aldrich
In words: MST binding of fluorescent fatty acids to FABP3. As to the method:
as §1, §2

The mark [1] stands for this setting: 80 nM rhodamine-PA, HEPES/NaCl pH 7.5 with 0.05 Vol-% Tween 20.

T2 sequence (Q01469 whole entry): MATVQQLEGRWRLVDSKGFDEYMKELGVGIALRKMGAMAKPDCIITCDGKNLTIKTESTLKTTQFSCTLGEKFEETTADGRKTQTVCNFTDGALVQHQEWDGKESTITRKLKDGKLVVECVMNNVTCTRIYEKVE
T3 sequence (P05413 whole entry): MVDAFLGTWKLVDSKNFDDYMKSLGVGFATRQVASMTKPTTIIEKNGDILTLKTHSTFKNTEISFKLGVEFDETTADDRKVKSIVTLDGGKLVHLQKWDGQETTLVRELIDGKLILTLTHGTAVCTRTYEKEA
T1 sequence (P15090 whole entry): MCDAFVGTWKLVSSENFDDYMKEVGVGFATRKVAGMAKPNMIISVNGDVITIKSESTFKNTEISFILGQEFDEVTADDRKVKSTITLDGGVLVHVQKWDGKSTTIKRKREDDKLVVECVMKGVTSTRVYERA

As for `CCCCCCCC/C=C\CCCCCCCC(=O)O` [oleic acid], at FABPs, the Kd (commonly the free concentration of one partner at which half of the binding sites on the other are occupied at equilibrium, for simple one-to-one binding) was 0.44 to 1.56 µM.
With `CCN(CC)c1ccc2c(-c3ccc(S(=O)(=O)NCCCCCCCCCCCCCCCC(=O)O)cc3S(=O)(=O)[O-])c3ccc(=[N+](CC)CC)cc-3oc2c1` [rhodamine-PA, [16-N-(lissamine rhodamine ß sulfonyl)amino] palmitic acid], the lnKA turned out to be 11.46 ± 0.18 at FABP4, 11.7 ± 0.08 at FABP5 and 12.56 ± 0.11 on FABP3. Besides, the Kd at FABP4 (80 nM rhodamine-PA, FABP4 handled in water) was 10.5 ± 2.1 µM; at FABP5 (setting [1]) it was 8.3 ± 0.7 µM; at FABP3 (setting [1]), 3.5 ± 0.4 µM. Besides, the “ΔGm,A (molar Gibbs energy of association)” value at FABP4 (at 22 °C, van't Hoff equation) was -6.72 ± 0.105 kcal/mol; at FABP5 (at 22 °C, van't Hoff equation) it was -6.86 ± 0.048 kcal/mol; on FABP3 (at 22 °C, van't Hoff equation), -7.36 ± 0.0645 kcal/mol.

Source of the values: paper PMC11231610, “Fatty acid binding to the human transport proteins FABP3, FABP4, and FABP5 from a Ligand’s perspective” (The Journal of Biological Chemistry, 2024).
